In PubChem BioAssay (NCI):
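Method: 48-hour compound exposure of cells in 96-well plates, five concentrations, linear interpolation of endpoints. TGI marks complete inhibition of growth.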

Key:
Experiment in all cases: inhibition of tumour cell growth, NCI panel, 48 h
IGROV1 ovarian = tested on: IGROV1 ovarian
SR leukemia = tested on: SR leukemia
HT29 colon = tested on: HT29 colon
OVCAR-4 ovarian = tested on: OVCAR-4 ovarian
SN12C renal = tested on: SN12C renal
HOP-92 NSCLC = tested on: HOP-92 NSCLC
PC-3 prostate = tested on: PC-3 prostate
NCI-H23 lung = tested on: NCI-H23 lung
SK-MEL-2 melanoma = tested on: SK-MEL-2 melanoma
M14 melanoma = tested on: M14 melanoma
EKVX NSCLC = tested on: EKVX NSCLC
RXF 393 renal = tested on: RXF 393 renal
MDA-N = tested on: MDA-N
LOX IMVI melanoma = tested on: LOX IMVI melanoma
MCF7 breast = tested on: MCF7 breast
OVCAR-8 ovarian = tested on: OVCAR-8 ovarian
MDA-MB-435 = tested on: MDA-MB-435
DU-145 prostate = tested on: DU-145 prostate
T-47D breast = tested on: T-47D breast
HCT-15 colon = tested on: HCT-15 colon
K-562 leukemia = tested on: K-562 leukemia
ACHN renal = tested on: ACHN renal
HCT-116 colon = tested on: HCT-116 colon
KM12 colon = tested on: KM12 colon
OVCAR-5 ovarian = tested on: OVCAR-5 ovarian
CAKI-1 renal = tested on: CAKI-1 renal
NCI-H460 lung = tested on: NCI-H460 lung
OVCAR-3 ovarian = tested on: OVCAR-3 ovarian
HS 578T breast = tested on: HS 578T breast
RPMI-8226 leukemia = tested on: RPMI-8226 leukemia
NCI/ADR-RES ovarian = tested on: NCI/ADR-RES ovarian
NCI-H226 lung = tested on: NCI-H226 lung
786-0 renal = tested on: 786-0 renal
UO-31 renal = tested on: UO-31 renal
HOP-62 NSCLC = tested on: HOP-62 NSCLC
BT-549 breast = tested on: BT-549 breast
TK-10 renal = tested on: TK-10 renal
U251 CNS = tested on: U251 CNS
SW-620 colon = tested on: SW-620 colon
CCRF-CEM leukemia = tested on: CCRF-CEM leukemia
SF-268 CNS = tested on: SF-268 CNS
COLO 205 colon = tested on: COLO 205 colon
UACC-257 melanoma = tested on: UACC-257 melanoma
SF-539 CNS = tested on: SF-539 CNS
MDA-MB-231 breast = tested on: MDA-MB-231 breast
SNB-75 CNS = tested on: SNB-75 CNS
A549 NSCLC = tested on: A549 NSCLC
NCI-H522 lung = tested on: NCI-H522 lung
SF-295 CNS = tested on: SF-295 CNS
MALME-3M melanoma = tested on: MALME-3M melanoma
A498 renal = tested on: A498 renal
SK-OV-3 ovarian = tested on: SK-OV-3 ovarian
HCC-2998 colon = tested on: HCC-2998 colon
SK-MEL-5 melanoma = tested on: SK-MEL-5 melanoma
MOLT-4 leukemia = tested on: MOLT-4 leukemia
SK-MEL-28 melanoma = tested on: SK-MEL-28 melanoma
SNB-19 CNS = tested on: SNB-19 CNS
HL-60(TB) leukemia = tested on: HL-60(TB) leukemia
UACC-62 melanoma = tested on: UACC-62 melanoma

`O=C(NCCN1CCCCC1)c1ccc(I)cc1` was tested. Which TGI (IGROV1 ovarian) did it give?
The TGI was greater than 100 µM.

And the TGI (SR leukemia)?
The TGI was greater than 100 µM.

And the TGI (HT29 colon)?
The TGI was greater than 100 µM.

What about the TGI (OVCAR-4 ovarian) of the same molecule?
The TGI was greater than 100 µM.

What about the TGI (SN12C renal) of the same molecule?
Its TGI is greater than 100 µM.

What about the TGI (HOP-92 NSCLC) of the same molecule?
Its TGI is greater than 100 µM.

What about the TGI (PC-3 prostate) of the same molecule?
Its TGI is greater than 100 µM.

And the TGI (NCI-H23 lung)?
The TGI was greater than 100 µM.

And the TGI (SK-MEL-2 melanoma)?
Its TGI is greater than 100 µM.

What about the TGI (M14 melanoma) of the same molecule?
The TGI was greater than 100 µM.

And the TGI (EKVX NSCLC)?
Its TGI is greater than 100 µM.

What about the TGI (RXF 393 renal) of the same molecule?
The TGI was greater than 100 µM.

What about the TGI (MDA-N) of the same molecule?
Its TGI is greater than 100 µM.

And the TGI (LOX IMVI melanoma)?
The TGI was greater than 100 µM.

And the TGI (MCF7 breast)?
The TGI was greater than 100 µM.

What about the TGI (OVCAR-8 ovarian) of the same molecule?
Its TGI is greater than 100 µM.

And the TGI (MDA-MB-435)?
The TGI was greater than 100 µM.

And the TGI (DU-145 prostate)?
Its TGI is greater than 100 µM.

What about the TGI (T-47D breast) of the same molecule?
The TGI was greater than 100 µM.

And the TGI (HCT-15 colon)?
The TGI was greater than 100 µM.

And the TGI (K-562 leukemia)?
The TGI was greater than 100 µM.

And the TGI (ACHN renal)?
The TGI was greater than 100 µM.

And the TGI (HCT-116 colon)?
The TGI was greater than 100 µM.

And the TGI (KM12 colon)?
The TGI was greater than 100 µM.

And the TGI (OVCAR-5 ovarian)?
The TGI was greater than 100 µM.

What about the TGI (CAKI-1 renal) of the same molecule?
The TGI was greater than 100 µM.

And the TGI (NCI-H460 lung)?
Its TGI is greater than 100 µM.

What about the TGI (OVCAR-3 ovarian) of the same molecule?
The TGI was greater than 100 µM.

And the TGI (HS 578T breast)?
The TGI was greater than 100 µM.

And the TGI (RPMI-8226 leukemia)?
Its TGI is greater than 100 µM.

And the TGI (NCI/ADR-RES ovarian)?
The TGI was greater than 100 µM.

And the TGI (NCI-H226 lung)?
The TGI was greater than 100 µM.

And the TGI (786-0 renal)?
Its TGI is greater than 100 µM.

And the TGI (UO-31 renal)?
Its TGI is greater than 100 µM.

What about the TGI (HOP-62 NSCLC) of the same molecule?
The TGI was greater than 100 µM.

And the TGI (BT-549 breast)?
The TGI was greater than 100 µM.

What about the TGI (TK-10 renal) of the same molecule?
Its TGI is greater than 100 µM.

What about the TGI (U251 CNS) of the same molecule?
Its TGI is greater than 100 µM.

What about the TGI (SW-620 colon) of the same molecule?
Its TGI is greater than 100 µM.

What about the TGI (CCRF-CEM leukemia) of the same molecule?
Its TGI is greater than 100 µM.

And the TGI (SF-268 CNS)?
Its TGI is greater than 100 µM.

What about the TGI (COLO 205 colon) of the same molecule?
The TGI was greater than 100 µM.

What about the TGI (UACC-257 melanoma) of the same molecule?
The TGI was greater than 100 µM.

And the TGI (SF-539 CNS)?
The TGI was greater than 100 µM.

What about the TGI (MDA-MB-231 breast) of the same molecule?
Its TGI is greater than 100 µM.

What about the TGI (SNB-75 CNS) of the same molecule?
The TGI was greater than 100 µM.

And the TGI (A549 NSCLC)?
The TGI was greater than 100 µM.

What about the TGI (NCI-H522 lung) of the same molecule?
Its TGI is greater than 100 µM.

What about the TGI (SF-295 CNS) of the same molecule?
Its TGI is greater than 100 µM.

And the TGI (MALME-3M melanoma)?
Its TGI is greater than 100 µM.

And the TGI (A498 renal)?
Its TGI is 69.3 µM.

And the TGI (SK-OV-3 ovarian)?
The TGI was greater than 100 µM.

What about the TGI (HCC-2998 colon) of the same molecule?
The TGI was greater than 100 µM.

And the TGI (SK-MEL-5 melanoma)?
Its TGI is greater than 100 µM.

What about the TGI (MOLT-4 leukemia) of the same molecule?
The TGI was greater than 100 µM.

And the TGI (SK-MEL-28 melanoma)?
Its TGI is greater than 100 µM.

And the TGI (SNB-19 CNS)?
The TGI was greater than 100 µM.

`O=C(O)CCc1c2ccc(=O)c(O)c-2oc2c(O)c(O)ccc12` was tested. Which TGI (IGROV1 ovarian) did it give?
Its TGI is greater than 100 µM.

And the TGI (SR leukemia)?
Its TGI is greater than 100 µM.

What about the TGI (HT29 colon) of the same molecule?
Its TGI is greater than 100 µM.

What about the TGI (OVCAR-4 ovarian) of the same molecule?
The TGI was greater than 100 µM.

And the TGI (SN12C renal)?
Its TGI is 34.8 µM.

And the TGI (HL-60(TB) leukemia)?
The TGI was greater than 100 µM.

And the TGI (HOP-92 NSCLC)?
Its TGI is greater than 100 µM.

What about the TGI (PC-3 prostate) of the same molecule?
The TGI was greater than 100 µM.

And the TGI (NCI-H23 lung)?
The TGI was greater than 100 µM.

And the TGI (SK-MEL-2 melanoma)?
Its TGI is greater than 100 µM.

And the TGI (M14 melanoma)?
The TGI was greater than 100 µM.

What about the TGI (EKVX NSCLC) of the same molecule?
The TGI was greater than 100 µM.

And the TGI (RXF 393 renal)?
The TGI was greater than 100 µM.

And the TGI (MDA-N)?
The TGI was 36.5 µM.

What about the TGI (LOX IMVI melanoma) of the same molecule?
The TGI was 47.9 µM.

What about the TGI (MCF7 breast) of the same molecule?
The TGI was 29.3 µM.

And the TGI (OVCAR-8 ovarian)?
Its TGI is greater than 100 µM.

What about the TGI (MDA-MB-435) of the same molecule?
The TGI was 31.1 µM.

And the TGI (DU-145 prostate)?
Its TGI is greater than 100 µM.

And the TGI (T-47D breast)?
Its TGI is greater than 100 µM.

What about the TGI (HCT-15 colon) of the same molecule?
The TGI was greater than 100 µM.

And the TGI (K-562 leukemia)?
The TGI was 55.2 µM.

What about the TGI (ACHN renal) of the same molecule?
The TGI was greater than 100 µM.

And the TGI (HCT-116 colon)?
Its TGI is 59.5 µM.

And the TGI (KM12 colon)?
Its TGI is greater than 100 µM.

What about the TGI (OVCAR-5 ovarian) of the same molecule?
Its TGI is greater than 100 µM.

And the TGI (CAKI-1 renal)?
Its TGI is greater than 100 µM.

What about the TGI (NCI-H460 lung) of the same molecule?
The TGI was greater than 100 µM.

And the TGI (OVCAR-3 ovarian)?
Its TGI is greater than 100 µM.

What about the TGI (HS 578T breast) of the same molecule?
The TGI was greater than 100 µM.

And the TGI (RPMI-8226 leukemia)?
Its TGI is 75.3 µM.

What about the TGI (NCI/ADR-RES ovarian) of the same molecule?
The TGI was greater than 100 µM.

And the TGI (786-0 renal)?
Its TGI is greater than 100 µM.

What about the TGI (UO-31 renal) of the same molecule?
The TGI was greater than 100 µM.

What about the TGI (HOP-62 NSCLC) of the same molecule?
The TGI was greater than 100 µM.

And the TGI (BT-549 breast)?
The TGI was greater than 100 µM.

And the TGI (TK-10 renal)?
The TGI was greater than 100 µM.

And the TGI (U251 CNS)?
The TGI was greater than 100 µM.

And the TGI (SW-620 colon)?
Its TGI is 59.9 µM.

What about the TGI (CCRF-CEM leukemia) of the same molecule?
The TGI was 13.8 µM.

What about the TGI (SF-268 CNS) of the same molecule?
Its TGI is greater than 100 µM.

And the TGI (COLO 205 colon)?
The TGI was greater than 100 µM.

What about the TGI (UACC-257 melanoma) of the same molecule?
Its TGI is greater than 100 µM.

And the TGI (MDA-MB-231 breast)?
Its TGI is 62.9 µM.

What about the TGI (SNB-75 CNS) of the same molecule?
The TGI was greater than 100 µM.

And the TGI (A549 NSCLC)?
The TGI was greater than 100 µM.

And the TGI (NCI-H522 lung)?
The TGI was greater than 100 µM.

And the TGI (SF-295 CNS)?
The TGI was 82.5 µM.

And the TGI (MALME-3M melanoma)?
The TGI was greater than 100 µM.

What about the TGI (A498 renal) of the same molecule?
Its TGI is greater than 100 µM.

What about the TGI (SK-OV-3 ovarian) of the same molecule?
The TGI was greater than 100 µM.

And the TGI (HCC-2998 colon)?
The TGI was greater than 100 µM.

And the TGI (SK-MEL-5 melanoma)?
The TGI was greater than 100 µM.

What about the TGI (MOLT-4 leukemia) of the same molecule?
The TGI was 65.7 µM.

What about the TGI (UACC-62 melanoma) of the same molecule?
The TGI was greater than 100 µM.

What about the TGI (SK-MEL-28 melanoma) of the same molecule?
The TGI was greater than 100 µM.

What about the TGI (SNB-19 CNS) of the same molecule?
Its TGI is greater than 100 µM.
